What was measured:
[1] = microPET imaging of U87MG tumor xenografts in mice; type: in vivo, nude mice; conditions: nude, mouse, iv, total radioactivity
U87MG tumor xenografts = experiment: microPET imaging of U87MG tumor xenografts in mice; type: in vivo, nude mice
[2] = tumor versus muscle (background)

tissue uptake at 0.5 h ([1]; kidney, 20 mg/kg): 2.76 ± 0.85 %ID/g
tissue uptake at 1 h ([1]; kidney, 20 mg/kg): 1.26 ± 0.23 %ID/g
tissue uptake at 2 h ([1]; kidney, 20 mg/kg): 0.81 ± 0.04 %ID/g
tissue uptake at 0.5 h ([1]; kidney): 5.46 ± 1.1 %ID/g
tissue uptake at 1 h ([1]; kidney): 3.99 ± 1.08 %ID/g
tissue uptake at 2 h ([1]; kidney): 2.26 ± 0.67 %ID/g
tissue uptake at 0.5 h ([1]; liver, 20 mg/kg): 1.34 ± 0.06 %ID/g
tissue uptake at 1 h ([1]; liver, 20 mg/kg): 0.7 ± 0.08 %ID/g
tissue uptake at 2 h ([1]; liver, 20 mg/kg): 0.32 ± 0.01 %ID/g
tissue uptake at 0.5 h ([1]; liver): 3.64 ± 0.76 %ID/g
tissue uptake at 1 h ([1]; liver): 2.84 ± 0.76 %ID/g
tissue uptake at 2 h ([1]; liver): 2.15 ± 0.53 %ID/g
tissue to tissue ratio at 0.5 h [1, 2]: 4.5 ± 0.83
tissue to tissue ratio at 1 h [1, 2]: 5.4 ± 0.72
tissue to tissue ratio at 2 h [1, 2]: 6.3 ± 1.1
tissue uptake at 0.5 h ([1]; tumor, 20 mg/kg): 1.62 ± 0.1 %ID/g
tissue uptake at 1 h ([1]; tumor, 20 mg/kg): 1.26 ± 0.13 %ID/g
tissue uptake at 2 h ([1]; tumor, 20 mg/kg): 0.49 ± 0.02 %ID/g
tissue uptake at 1 h ([1]; tumor): 4.25 ± 0.82 %ID/g
tissue uptake at 2 h ([1]; tumor): 3.35 ± 0.71 %ID/g
specific tumor uptake higher than that of [18F]FPPRGD2 (U87MG tumor xenografts; 30 min, comparison in the same mice (Fig S5, Table S1)): 50%
uptakes in organs such as liver and kidney compared with [18F]FPPRGD2 (U87MG tumor xenografts; comparison in the same mice): higher
Compound: N=C(N)NCCC[C@@H]1NC(=O)[C@H](CCCCNC(=O)CC[C@H](NC(=O)COCCOCCOCCNC(=O)[C@@H]2CSC(c3nc4ccc(OCCF)cc4s3)=N2)C(=O)NCCCC[C@@H]2NC(=O)[C@@H](Cc3ccc(O)cc3)NC(=O)[C@H](CC(=O)O)NC(=O)CNC(=O)[C@H](CCCNC(=N)N)NC2=O)NC(=O)[C@@H](Cc2ccc(O)cc2)NC(=O)[C@H](CC(=O)O)NC(=O)CNC1=O [[^18F]CBTRGD2]

From PMC3447118 (Bioconjugate chemistry, 2012)
